Source: US11578084B2, “Condensed ring compounds having dopamine D3 receptor antagonistic effect” (Shionogi & Co., Ltd., priority 2018, dated 2023)
pKi: −log10 of the molar value. Where two headings read alike, the source gives them in different places.

How the values were obtained:
[1] = target: human recombinant dopamine D3 receptor (Homo sapiens (Human), UniProt P35462); experiment: Test of binding inhibition for dopamine D3 receptor ([3H]-Methylspiperone SPA); settings: Jump-In HEK cell membranes, 2 nM [3H]-Methylspiperone, 120 min at 25° C.; read-out: hD3_Ki
Chain of human recombinant dopamine D3 receptor (P35462 whole entry): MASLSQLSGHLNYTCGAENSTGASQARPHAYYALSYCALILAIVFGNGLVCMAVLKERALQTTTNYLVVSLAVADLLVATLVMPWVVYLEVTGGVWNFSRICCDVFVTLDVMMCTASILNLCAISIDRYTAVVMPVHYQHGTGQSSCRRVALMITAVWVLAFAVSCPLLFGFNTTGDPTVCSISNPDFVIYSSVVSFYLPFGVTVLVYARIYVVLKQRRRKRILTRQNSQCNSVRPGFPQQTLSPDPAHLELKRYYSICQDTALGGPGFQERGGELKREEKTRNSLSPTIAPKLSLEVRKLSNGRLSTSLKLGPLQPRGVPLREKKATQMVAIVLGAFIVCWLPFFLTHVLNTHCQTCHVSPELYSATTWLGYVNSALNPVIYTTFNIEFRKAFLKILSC
How it was run: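 SPA radioligand binding on Jump-In HEK membranes expressing human D3 receptor (4 µg/well) with 2 nM [3H]-methylspiperone (final), incubated 120 min at 25 °C. Non-specific binding defined with 10 µM butaclamol. Percent inhibition computed against total and non-specific binding; Ki from dose-response curves.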

hERG channel (IKr) = hERG channel (IKr) (Homo sapiens (Human), UniProt Q12809); experiment: hERG test (whole cell patch clamp, IKr); assay type: cell-based; settings: human, CHO cells expressing hERG channel, pH 7.4, 3 μM, tail peak current
Chain of hERG channel (IKr) (Q12809 whole entry): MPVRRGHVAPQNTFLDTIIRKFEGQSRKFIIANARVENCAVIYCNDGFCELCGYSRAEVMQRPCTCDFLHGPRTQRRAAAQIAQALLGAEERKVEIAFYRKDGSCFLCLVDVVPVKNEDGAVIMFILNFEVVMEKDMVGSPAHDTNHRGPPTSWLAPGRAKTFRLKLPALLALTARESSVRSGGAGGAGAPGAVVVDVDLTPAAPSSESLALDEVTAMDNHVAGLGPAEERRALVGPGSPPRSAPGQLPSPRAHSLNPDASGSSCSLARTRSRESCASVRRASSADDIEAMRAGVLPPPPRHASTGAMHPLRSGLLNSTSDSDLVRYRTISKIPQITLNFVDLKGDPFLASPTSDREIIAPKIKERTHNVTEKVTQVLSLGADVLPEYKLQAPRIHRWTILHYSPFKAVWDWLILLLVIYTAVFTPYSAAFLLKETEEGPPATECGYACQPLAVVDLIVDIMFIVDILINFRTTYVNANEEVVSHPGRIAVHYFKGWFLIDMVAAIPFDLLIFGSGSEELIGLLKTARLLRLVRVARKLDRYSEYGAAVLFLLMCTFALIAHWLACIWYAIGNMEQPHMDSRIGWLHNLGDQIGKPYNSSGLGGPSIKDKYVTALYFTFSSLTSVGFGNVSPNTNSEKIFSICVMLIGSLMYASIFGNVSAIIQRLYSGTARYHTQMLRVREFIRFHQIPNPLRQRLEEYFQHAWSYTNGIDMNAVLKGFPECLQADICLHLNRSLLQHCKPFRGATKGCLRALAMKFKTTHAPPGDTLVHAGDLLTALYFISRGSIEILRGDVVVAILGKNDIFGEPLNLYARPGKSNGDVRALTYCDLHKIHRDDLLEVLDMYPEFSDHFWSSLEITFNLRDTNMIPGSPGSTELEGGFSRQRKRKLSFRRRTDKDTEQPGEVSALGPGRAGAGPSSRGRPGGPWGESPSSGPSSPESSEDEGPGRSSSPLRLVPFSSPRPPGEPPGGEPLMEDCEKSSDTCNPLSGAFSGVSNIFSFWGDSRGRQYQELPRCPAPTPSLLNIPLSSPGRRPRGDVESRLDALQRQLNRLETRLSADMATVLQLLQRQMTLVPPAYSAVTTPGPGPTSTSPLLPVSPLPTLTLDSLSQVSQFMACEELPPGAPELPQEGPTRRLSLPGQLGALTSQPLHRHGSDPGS
Description: Test Example 10: hERG Test
For the purpose of assessing risk of an electrocardiogram QT interval prolongation of the compound of the present invention, effects of the compound of the present invention on delayed rectifier K+ current (IKr), which plays an important role in the ventricular repolarization process, was studied using CHO cells expressing human ether-a-go-go related gene (hERG) channel.
After a cell was retained at a membrane potential of −80 mV by whole cell patch clamp method using an automated patch clamp system (QPatch; Sophion Bioscience A/S) and gave a leak potential of −50 mV, IKr induced by depolarization pulse stimulation at +20 mV for 2 seconds and, further, repolarization pulse stimulation at −50 mV for 2 seconds, was recorded. After the generated current was stabilized, extracellular solution (NaCl: 145 mmol/L, KCl: 4 mmol/L, CaCl2): 2 mmol/L, MgCl2: 1 mmol/L, glucose: 10 mmol/L, HEPES (4-(2-hydroxyethyl)-1-piperazineethanesulfonic acid): 10 mmol/L, pH=7.4), in which the compound of the present invention had been dissolved at an objective concentration in the extracellular solution, was applied to the cell at room temperature for 7 minutes or more. From the recording IKr, an absolute value of the tail peak current was measured based on the current value at the resting membrane potential using analysis software (QPatch Assay software; Sophion Bioscience A/S). Further, the % inhibition of tail peak current for the compound of the present invention relative to the tail peak current after application of the solution (0.1% dimethyl sulfoxide solution) was calculated to assess influence of the compound of the present invention on IKr.

[2] = target: human recombinant dopamine D2 receptor (Homo sapiens (Human), UniProt P14416); experiment: Test of binding inhibition for dopamine D2 receptor ([3H]-Methylspiperone SPA); settings: Jump-In HEK cell membranes, read-out: hD2_Ki
Chain of human recombinant dopamine D2 receptor (P14416 whole entry): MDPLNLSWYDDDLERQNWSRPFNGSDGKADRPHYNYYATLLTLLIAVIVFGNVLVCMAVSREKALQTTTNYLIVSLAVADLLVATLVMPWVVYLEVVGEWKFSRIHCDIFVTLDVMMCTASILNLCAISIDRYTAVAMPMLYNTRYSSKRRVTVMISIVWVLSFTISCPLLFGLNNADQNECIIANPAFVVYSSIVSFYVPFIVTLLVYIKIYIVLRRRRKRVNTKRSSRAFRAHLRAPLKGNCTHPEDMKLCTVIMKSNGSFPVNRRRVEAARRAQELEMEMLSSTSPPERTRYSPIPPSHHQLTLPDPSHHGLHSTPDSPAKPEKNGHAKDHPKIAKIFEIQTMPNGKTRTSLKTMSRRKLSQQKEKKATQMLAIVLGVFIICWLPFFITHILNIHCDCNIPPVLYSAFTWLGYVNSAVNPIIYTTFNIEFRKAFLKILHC
How it was run: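 Incubation was 120 min at 25° C. with human recombinant D2 membranes from Jump-In HEK cells (2 μg/well), WGA SPA beads (0.2 mg/well) and [3H]-Methylspiperone as radioligand.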

[3] = 1.2 nM [3H]-Methylspiperone, 120 min at 25° C.

Row | Compound | pKi [1] | inhibition at 3 µM (hERG channel (IKr)) | pKi [2, 3] | pKi ([2]; [3H]-Methylspiperone 1.2 nM)
1 | Cn1cc2c(C(=O)N[C@H]3CC4(C3)C[C@](F)(CCN3CCc5nc(OCC(F)(F)F)sc5CC3)C4)cccc2n1 (single isomer, unassigned) [Example I-049] | 9.48 | 36.8% | 6.51 | –
2 | Cn1cc(/C=C/C(=O)N[C@H]2CC[C@](F)(CCN3CCc4nc(OCC(C)(F)F)sc4CC3)CC2)cn1 [Example I-074] | 10.60 | 31% | 7.20 | –
3 | Cc1ncc(OCC(=O)N[C@H]2CC[C@](F)(CCN3CCc4ccc(OCC(F)F)nc4CC3)CC2)cn1 [Example I-030] | 9.52 | 26.1% | 6.21 | –
4 | Cn1cc2ccc(C(=O)N[C@H]3CC[C@H](CCN4CCc5nc(OCC(C)(F)F)sc5CC4)OC3)cc2n1 [Example I-066] | 9.43 | 14.3% | 6.11 | –
5 | Cc1nnc(CC(=O)N[C@H]2CC[C@](F)(CCN3CCc4nc(OCC(C)(F)F)sc4CC3)CC2)s1 [Example I-073] | 9.54 | 25.9% | 6.35 | –
6 | Cn1ncc(CC(=O)N[C@H]2CC[C@](F)(CCN3CCc4nc(OCC(F)(F)F)sc4CC3)CC2)n1 [I′-37] | 9.74 | 19.6% | – | 5.80
7 | CC[C@@H](C)Oc1ccc2c(n1)CCN(CC[C@]1(F)CC[C@@H](NC(=O)Cc3nnc(C)s3)CC1)CC2 [Example I-109] | 9.59 | 27% | 6.21 | –
8 | Cc1cnc(CC(=O)N[C@H]2CC[C@H](CCN3CCc4sc(C5CC(F)(F)C5)nc4C3)CC2)o1 [Example I-041] | 9.77 | 18.1% | 6.21 | –
9 | Cc1ncc(OCC(=O)N[C@H]2CC[C@H](CCN3CCc4sc(C5CC(F)(F)C5)nc4C3)CC2)cn1 [Example I-069] | 9.31 | 34.2% | 6.17 | –
10 | O=C(N[C@H]1CC[C@H](CCN2CCc3nc(OCC(F)(F)F)sc3CC2)CC1)c1cccnc1C(F)F [Example I-048] | 10.32 | 3.52% | 6.41 | –
11 | COc1cc(CC(=O)N[C@H]2CC[C@H](CCN3CCc4nc(OCC(C)(F)F)sc4CC3)OC2)on1 [Example I-010] | 9.89 | 32% | 6.03 | –
12 | Cc1cc(OCC(=O)N[C@H]2CC[C@H](CCN3CCc4nc(OC5CC(F)(F)C5)sc4CC3)CC2)no1 [Example I-022] | 10.00 | 32.6% | < 5.64 | –
13 | Cn1cc2c(C(=O)N[C@H]3CC[C@H](CCN4CCc5ccc(OCC(C)(C)F)nc5CC4)CC3)cccc2n1 [Example I-003] | 9.82 | 31% | 6.11 | –
14 | CC[C@@H](C)Oc1ccc2c(n1)CCN(CC[C@H]1CC[C@H](NC(=O)c3cccc4nn(C)cc34)CC1)CC2 [Example I-076] | 10.00 | 13.4% | < 5.72 | –
15 | Cc1ncc(OCC(=O)N[C@H]2CC[C@](F)(CCN3CCc4nc(OCC(C)(F)F)sc4CC3)CC2)cn1 [Example I-044] | 9.85 | 23.7% | 6.21 | –
16 | Cc1ncc(/C=C/C(=O)N[C@H]2CC[C@H](CCN3CCc4nc(OC5CC(F)(F)C5)sc4CC3)CC2)cn1 [Example I-082] | 10.07 | 11.1% | 6.17 | –
17 | Cc1nnc(CC(=O)N[C@H]2CC[C@](F)(CCN3CCc4nc(OCC(C)(F)F)sc4CC3)CC2)o1 [Example I-014] | 9.32 | 3.83% | 6.01 | –
18 | Cn1c(C(=O)NN2CCC(CCN3CCc4sc(OCC(F)(F)F)nc4C3)CC2)cccc1=O [Example I-080] | 9.09 | 5.68% | 5.68 | –
19 | Cn1ncc(CC(=O)N[C@H]2CC[C@H](CCN3CCc4nc(OCC(C)(F)F)sc4CC3)CC2)n1 [I′-38] | 10.37 | 20.6% | – | 6.00
20 | Cn1cc(CC(=O)N[C@H]2CC[C@](F)(CCN3CCc4ccc(OC5CCC5)nc4CC3)CC2)cn1 [Example I-104] | 9.17 | 16.3% | < 5.64 | –
21 | CCc1ncccc1C(=O)N[C@H]1CC[C@H](CCN2CCc3ccc(OC4CCC4)nc3CC2)CC1 [Example I-088] | 9.10 | 32% | 5.89 | –

Row | Compound | pKi [1] | inhibition at 3 µM (hERG channel (IKr)) | pKi [2, 3] | pKi ([2]; [3H]-Methylspiperone 1.2 nM)
22 | CC[C@@H](C)Oc1ccc2c(n1)CCN(CC[C@]1(F)CC[C@@H](NC(=O)Cc3nnc(C)o3)CC1)CC2 [Example I-108] | 9.05 | 1.06% | 5.92 | –
23 | Cn1cc2c(C(=O)N[C@H]3CC[C@H](CCN4CCc5sc(OCC(C)(F)F)nc5C4)CC3)c(F)ccc2n1 [Example I-103] | 9.77 | 26% | 6.47 | –
24 | CC(Oc1nc2c(s1)CCN(CC[C@H]1CC[C@H](NC(=O)c3cccc4nn(C)cc34)CC1)CC2)C(F)F (single isomer, unassigned) [Example I-112] | 9.92 | 23.5% | < 5.66 | –
25 | Cn1cc(OCC(=O)N[C@H]2CC[C@](F)(CCN3CCc4nc(OCC(C)(F)F)sc4CC3)CC2)cn1 [Example I-075] | 9.66 | 33.8% | 6.62 | –
26 | Cn1cc2c(C(=O)NN3CCC(CCN4CCc5sc(OCC(C)(F)F)nc5C4)CC3)cccc2n1 [Example I-077] | 9.42 | 4.33% | < 5.74 | –
27 | Cc1ncc(CC(=O)N[C@H]2CC[C@H](CCN3CCc4nc(OCCC(F)(F)F)sc4CC3)CC2)o1 [Example I-102] | 9.89 | 32.2% | 6.17 | –
28 | Cc1ncc(CC(=O)N[C@H]2CC[C@](F)(CCN3CCc4ccc(OCC(F)F)nc4CC3)CC2)o1 [Example I-026] | 10.02 | 20.1% | 5.96 | –
29 | Cn1cc2c(C(=O)N[C@H]3CC[C@H](CCN4CCc5nc(OCC(C)(F)F)sc5CC4)OC3)cccc2n1 [Example I-009] | 9.92 | 33.8% | 6.16 | –
30 | Cn1c(C(=O)N[C@H]2CC[C@](F)(CCN3CCc4ccc(OCC(F)F)nc4CC3)CC2)cccc1=O [Example I-029] | 9.44 | 8.37% | 6.21 | –
31 | Cc1ncccc1C(=O)N[C@H]1CC[C@](F)(CCN2CCc3nc(OCC(C)(F)F)sc3CC2)CC1 [Example I-042] | 9.24 | 10.8% | 6.00 | –
32 | Cc1nnc(CC(=O)N[C@H]2CC[C@H](CCN3CCc4nc(OC5CC(F)(F)C5)sc4CC3)CC2)o1 [Example I-020] | 9.57 | 23.1% | < 5.74 | –
33 | Cn1cc(CC(=O)N[C@H]2CC[C@H](CCN3CCc4nc(OCCC(F)(F)F)sc4CC3)CC2)cn1 [Example I-101] | 9.52 | 34.9% | 5.66 | –
34 | Cc1nc(CC(=O)N[C@H]2CC[C@](F)(CCN3CCc4nc(OCCC(F)(F)F)sc4CC3)CC2)no1 [Example I-114] | 9.23 | 29% | < 5.66 | –
35 | Cc1nnc(CC(=O)N[C@H]2CC[C@H](CCN3CCc4sc(C5CC(F)(F)C5)nc4C3)OC2)o1 [Example I-011] | 9.49 | 10.6% | 6.02 | –
36 | Cn1ncc(CC(=O)N[C@H]2CC[C@H](CCN3CCc4nc(OC5CC(F)(F)C5)sc4CC3)CC2)n1 [Example I-023] | 9.96 | 16.5% | < 5.66 | –
37 | Cc1cnc(CC(=O)N[C@H]2CC[C@](F)(CCN3CCc4nc(OCC(C)(F)F)sc4CC3)CC2)o1 [Example I-015] | 9.59 | 24.3% | 6.00 | –
38 | COC(CN1CCc2sc(OCC(F)(F)F)nc2C1)[C@H]1CC[C@H](NC(=O)c2cccc3nn(C)cc23)CC1 (stereo partly drawn) [Example I-186] | 9.66 | 16.8% | 6.57 | –
39 | Cc1nnc(CC(=O)N[C@H]2CC[C@](F)(CCN3CCc4nc(OCC(F)F)sc4CC3)CC2)s1 [Example I-040] | 9.34 | 23.2% | 6.05 | –
40 | Cn1cc(CC(=O)N[C@H]2CC[C@](F)(CCN3CCc4ccc(OCC(C)(F)F)nc4CC3)CC2)cn1 [Example I-017] | 10.20 | 21.6% | 6.62 | –
41 | Cn1cc(CC(=O)N[C@H]2CC[C@](F)(CCN3CCc4ccc(OCC(F)F)nc4CC3)CC2)cn1 [Example I-027] | 9.64 | 14.3% | 6.00 | –
